Target: T1, wild-type FLT3 receptor (Homo sapiens, UniProt P36888)
T1 construct: host or cells: Baf3 (murine B cell lymphoma line), stably transfected
T1 sequence (P36888 27-993): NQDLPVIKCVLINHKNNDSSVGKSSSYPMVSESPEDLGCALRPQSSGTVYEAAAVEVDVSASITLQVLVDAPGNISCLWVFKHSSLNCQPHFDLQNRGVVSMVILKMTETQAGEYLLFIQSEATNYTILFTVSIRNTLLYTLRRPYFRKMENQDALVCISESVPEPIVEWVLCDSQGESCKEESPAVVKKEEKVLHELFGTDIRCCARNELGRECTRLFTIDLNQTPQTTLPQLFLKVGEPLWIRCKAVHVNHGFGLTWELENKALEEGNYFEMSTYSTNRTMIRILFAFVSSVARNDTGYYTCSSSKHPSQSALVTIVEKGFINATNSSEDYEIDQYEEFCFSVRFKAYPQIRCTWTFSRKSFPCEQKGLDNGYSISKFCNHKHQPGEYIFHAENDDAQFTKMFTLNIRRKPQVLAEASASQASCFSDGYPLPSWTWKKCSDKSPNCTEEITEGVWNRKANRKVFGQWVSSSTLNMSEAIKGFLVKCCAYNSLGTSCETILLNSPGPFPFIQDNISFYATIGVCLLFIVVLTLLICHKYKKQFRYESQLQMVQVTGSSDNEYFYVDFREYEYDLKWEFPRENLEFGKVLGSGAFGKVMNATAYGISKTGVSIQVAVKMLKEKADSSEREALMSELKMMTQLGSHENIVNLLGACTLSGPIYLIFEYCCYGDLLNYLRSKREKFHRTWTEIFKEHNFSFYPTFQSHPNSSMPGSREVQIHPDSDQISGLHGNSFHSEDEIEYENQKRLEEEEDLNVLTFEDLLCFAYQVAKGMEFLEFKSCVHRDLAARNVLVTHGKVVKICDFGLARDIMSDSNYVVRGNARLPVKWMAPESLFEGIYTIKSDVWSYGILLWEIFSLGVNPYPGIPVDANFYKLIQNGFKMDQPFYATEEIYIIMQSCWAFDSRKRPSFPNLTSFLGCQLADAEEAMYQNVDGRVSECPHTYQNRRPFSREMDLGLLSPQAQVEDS
Experiment: Cell-based FLT3 receptor ELISA (FLT ligand-induced phosphorylation in Baf3 FLT3 cells)
Conditions: 100 ng/mL Flt ligand, uncertainty ±20%
How it was run: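 Receptor phosphotyrosine measured by sandwich ELISA (anti-FLT3 capture, HRP anti-pTyr, luminescence) in FLT3-transfected murine Baf3 cells given 1 h compound pretreatment and 10 min 100 ng/mL FLT ligand after overnight low-serum starvation; triplicates, IC50 from nonlinear regression.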

| SMILES | IC50 [nM] |
| --- | --- |
| CN1CCN(CCCOc2ccc3c(C4CCN(C(=O)Nc5ccc(N6CCOCC6)cc5)CC4)ncnc3c2)CC1 [Example 73, 4-{7-[3-(4-Methyl-piperazin-1-yl)-propoxy]-quinazolin-4-yl}-piperidine-1-carboxylic acid (4-morpholin-4-yl-phenyl)-amide] | 92 |
| COc1cc2ncnc(C3CCN(C(=O)Nc4ccc(C5=CCN(C(=O)OC(C)(C)C)CC5)cc4)CC3)c2cc1OC [Example 61, 4-(4-{[4-(6,7-Dimethoxy-quinazolin-4-yl)-piperidine-1-carbonyl]-amino}-phenyl)-3,6-dihydro-2H-pyridine-1-carboxylic acid tert-butyl ester] | 1800 |
| CCN(CC)CC#Cc1ccc2ncnc(C3CCN(C(=O)Nc4ccc(OC(C)C)cc4)CC3)c2c1 [Example 13, 4-[6-(3-Diethylamino-prop-1-ynyl)-quinazolin-4-yl]-piperidine-1-carboxylic acid (4-isopropoxy-phenyl)-amide] | 27 |
| CS(=O)(=O)OCCCOc1ccc2c(C3CCN(C(=O)Nc4ccc(N5CCOCC5)cc4)CC3)ncnc2c1 [Example 122, Methanesulfonic acid 3-{4-[1-(4-morpholin-4-yl-phenylcarbamoyl)-piperidin-4-yl]-quinazolin-7-yloxy}-propyl ester] | 110 |
| COc1cc2ncnc(C3CCN(C(=O)Nc4ccc(C5CCN(C(=O)OC(C)(C)C)CC5)cc4)CC3)c2cc1OC [Example 63, 4-(4-{[4-(6,7-Dimethoxy-quinazolin-4-yl)-piperidine-1-carbonyl]-amino}-phenyl)-piperidine-1-carboxylic acid tert-butyl ester] | 762 |
| CS(=O)(=O)NCCCOc1ccc2c(C3CCN(C(=O)Nc4ccc(OC5CCCC5)nc4)CC3)ncnc2c1 [Example 88, 4-[7-(3-Methanesulfonylamino-propoxy)-quinazolin-4-yl]-piperidine-1-carboxylic acid (6-cyclopentyloxy-pyridin-3-yl)-amide] | 30 |
| O=C(Nc1ccc(N2CCOCC2)cc1)N1CCC(c2ncnc3cc(OCCCN4CCN(CCO)CC4)ccc23)CC1 [Example 116, 4-(7-{3-[4-(2-Hydroxy-ethyl)-piperazin-1-yl]-propoxy}-quinazolin-4-yl)-piperidine-1-carboxylic acid (4-morpholin-4-yl-phenyl)-amide] | 25 |

Now those with a lower IC50, led by results:

| IC50 [nM] | SMILES |
| --- | --- |
| 7 | COc1cc2ncnc(C3CCN(CC(=O)Nc4ccc(C(C)C)cc4)CC3)c2cc1OC [Example 9, 2-[4-(6,7-Dimethoxy-quinazolin-4-yl)-piperidin-1-yl]-N-(4-isopropyl-phenyl)-acetamide] |
| 10 | CN1CCC(COc2ccc3c(C4CCN(C(=O)Nc5ccc(N6CCCC6)cc5)CC4)ncnc3c2)CC1 [Example 109, 4-[7-(1-Methyl-piperidin-4-ylmethoxy)-quinazolin-4-yl]-piperidine-1-carboxylic acid (4-pyrrolidin-1-yl-phenyl)-amide] |
| 1 | CC(C)Oc1ccc(NC(=O)N2CCC(c3ncnc4cc(OCC5CCN(C)CC5)ccc34)CC2)cc1 [Example 93, 4-[7-(1-Methyl-piperidin-4-ylmethoxy)-quinazolin-4-yl]-piperidine-1-carboxylic acid (4-isopropoxy-phenyl)-amide] |
| 8 | COc1cc2ncnc(C3CCN(C(=O)Nc4ccc(Oc5ccccc5)cc4)CC3)c2cc1OC [Example 47, 4-(6,7-Dimethoxy-quinazolin-4-yl)-piperidine-1-carboxylic acid (4-phenoxy-phenyl)-amide] |
